According to patent US6713261B1, “Method for assessing genotoxicity of a compound” (Institut National de la Sante et de la Recherche Medicale, priority 1999, dated 2004):
Where two headings read alike, the source gives them in different places. Starred links: 1 amine or outer side, 2 acyl side, 3 side chain; linkers in the order of their positions; H or OH if unused. Positions of bridges follow the written chain, without caps; N, C: chain ends. Non-standard residues stand in square brackets, D forms with d. Residues, ends and D or L forms follow the SMILES beside them. Chains are numbered I, II in the order given. Actinocin(9to1) = Cc1c2oc3c(C)ccc(C(=O)[*:1])c3nc-2c(C(=O)[*:2])c(N)c1=O; NMeV = CN[C@H](C(=O)O)C(C)C; Sar = CNCC(=O)O

How the values were obtained:
[1] = system: CTLL-2 cells; experiment: Micronucleus test without metabolic activation in CTLL-2 cells; settings: for formation of micronuclei / micronucleated cell frequency (result in words): harvested at 15th hour, without metabolic activation
[2] = system: CTLL-2 cells; experiment: Metaphase analysis test in CTLL-2 cells; format: cell-based, mouse; settings: for aberrant cells: CTLL-2
[3] = system: CTLL-2 cells; experiment: Measurement of apoptosis (Annexin V-FITC, YOPRO-1) in CTLL-2 cells; format: cell-based, mouse
[4] = system: CTLL-2-bcl2 cells; experiment: Micronucleus test without metabolic activation in CTLL-2-bcl2 cells; settings: harvested at 15th hour
[5] = system: CTLL-2-bcl2 cells; experiment: Measurement of apoptosis (Annexin V-FITC, YOPRO-1) in CTLL-2-bcl2 cells; format: cell-based, mouse; settings: for induction of apoptosis (result in words): in parallel to micronucleus test
[6] = system: CTLL-2-bcl2 cells; settings: mouse, 15 h
[7] = system: CTLL-2 cells; settings: mouse, 15 h
[8] = system: human lymphocytes; settings: human lymphocytes treated 44 hours; from 250 μM of dexamethasone; control 2%
[9] = system: human lymphocytes; settings: 44 hours
[10] = system: CTLL-2 cells; format: cell-based, mouse; settings: after metabolic activation
[11] = system: CTLL-2-bcl2 cells; format: cell-based, mouse; settings: after metabolic activation
[12] = system: CTLL-2 cells; settings: after metabolic activation
[13] = system: CTLL-2-bcl2 cells; settings: after metabolic activation
[14] = CTLL-2 cells, in parallel to micronucleus test

CN1C(=O)[C@]23CC4=CC=C[C@H](O)[C@H]4N2C(=O)[C@@]1(CO)SS3 [gliotoxin]
lowest concentration with increase in micronuclei versus control ([1]; CTLL-2 cells): 100 nM
number of aberrant (micronucleated) cells ([1]; nontransfected CTLL-2, gliotoxin at the highest dose (200 nM), increased from 5‰): 20 ‰
aberrant cells ([2]; from 50 μM of gliotoxin, control 1%): 10%
chromosomal aberrations (result in words) ([2]; CTLL-2 cells): positive response
lowest concentration with aberrations / positive response in terms of clastogenesis ([2]; CTLL-2 cells): 50 µM
level of apoptosis [3]: 45%
apoptosis ([3]; CTLL-2, in parallel to metaphase analysis, […], controls 5%): 17%
lowest concentration with apoptosis different from control (p=0.01) ([3]; CTLL-2 cells): 100 nM
formation of micronuclei / micronucleated cell frequency (result in words) [4]: as was the number of micronucleated cells
induction of apoptosis (result in words) [5]: apoptosis was maintained at a lower rate

CCOS(C)(=O)=O [ethyl methanesulfonate]
induction of apoptosis (result in words) [3, 14]: without inducing apoptosis
induction of apoptosis (result in words) [5]: without inducing apoptosis

CC(=O)O[C@H]1C(=O)[C@@]2(C)[C@H]([C@H](OC(=O)c3ccccc3)[C@]3(O)C[C@H](OC(=O)[C@H](O)[C@@H](NC(=O)c4ccccc4)c4ccccc4)C(C)=C1C3(C)C)[C@]1(OC(C)=O)CO[C@@H]1C[C@@H]2O [taxol]
induction of apoptosis (result in words) [3, 14]: induce apoptosis
apoptosis at the dose that increases micronuclei ([3]; CTLL-2 cells, taxol 25 nM): do not cause apoptosis
concentration at which the difference in number of micronuclei between CTLL-2 and CTLL-2-bcl2 lines appears [6]: 25 nM
lowest concentration with increase in number of micronuclei [6]: 50 nM
lowest concentration with increase in micronuclei versus control [7]: 25 nM
apoptosis at the dose that increases micronuclei ([5]; taxol 50 nM): do not cause apoptosis

thapsigargine
induction of apoptosis (result in words) [3, 14]: induce apoptosis

CC[C@@]1(O)C(=O)OCc2c1cc1n(c2=O)Cc2cc3ccccc3nc2-1 [camptothecin]
induction of apoptosis (result in words) [3, 14]: induce apoptosis

C[C@@H]1C[C@H]2[C@@H]3CCC4=CC(=O)C=C[C@]4(C)[C@@]3(F)[C@@H](O)C[C@]2(C)[C@@]1(O)C(=O)CO [dexamethasone]
aberrant cells ([2]; from 37.5 nM of dexamethasone, control 2%): 8%
chromosomal aberrations (result in words) ([2]; CTLL-2 cells): chromosome and chromatid breaking but no exchange
lowest concentration with number of aberrant cells statistically different (p=0.05) from control ([2]; CTLL-2 cells): 37.5 nM
aberrant cells [8]: 11%
concentration from which apoptosis increased ([3]; CTLL-2, in parallel to metaphase analysis): 37.5 nM
apoptosis ([3]; CTLL-2, in parallel to metaphase analysis, 150 nM dexamethasone): 30%
apoptosis ([3]; CTLL-2, in parallel to metaphase analysis, from 37.5 nM of dexamethasone, control approximately 7%): 18%
percentage of apoptotic cells ([3]; CTLL-2, Annexin-V-FITC and YOPRO-1, maximum from 50 nM of dexamethasone, negative control 6%): 30.5%
concentration from which apoptosis increased [9]: 250 µM
apoptosis ([9]; from 250 μM of dexamethasone, control approximately 16%): 40%
micronucleated cells ([7]; 50 nM): 60 ‰

O=P1(N(CCCl)CCCl)NCCCO1 (stereo not drawn) [cyclophosphamide]
apoptosis (result in words) [10]: apoptosis only on the CTLL-2 cells
apoptosis (result in words) [11]: apoptosis only on the CTLL-2 cells
formation of micronuclei (result in words) [12]: induce the formation of micronuclei
formation of micronuclei (result in words) [13]: induce the formation of micronuclei

O=c1c(-c2ccc(O)cc2)coc2cc(O)cc(O)c12 [genistein]
induction of apoptosis (result in words) [3, 14]: induce apoptosis

Cc1c2ccccc2c(C)c2c1ccc1ccccc12 [7,12-dimethylbenz[a]anthracene]
apoptosis (result in words) [10]: apoptosis only on the CTLL-2 cells
apoptosis (result in words) [11]: apoptosis only on the CTLL-2 cells
formation of micronuclei (result in words) [12]: induce the formation of micronuclei
formation of micronuclei (result in words) [13]: induce the formation of micronuclei

CCN(CC)CCCC(C)Nc1c2ccc(Cl)cc2nc2ccc(OC)cc12 (stereo not drawn) [quinacrin]
induction of apoptosis (result in words) [3, 14]: induce apoptosis

COc1cc(/C=C/C(=O)CC(=O)/C=C/c2ccc(O)c(OC)c2)ccc1O [curcumin]
induction of apoptosis (result in words) [3, 14]: induce apoptosis

Cc1c2oc3c(C)ccc(C(=O)N[C@@H]4C(=O)N[C@H](C(C)C)C(=O)N5CCC[C@H]5C(=O)N(C)CC(=O)N(C)[C@@H](C(C)C)C(=O)O[C@@H]4C)c3nc-2c(C(=O)N[C@@H]2C(=O)N[C@H](C(C)C)C(=O)N3CCC[C@H]3C(=O)N(C)CC(=O)N(C)[C@@H](C(C)C)C(=O)O[C@@H]2C)c(N)c1=O [Actinomycin D] (I: T[dV]P[Sar][NMeV] / II: T[dV]P[Sar][NMeV]; ester I:1-I:C, II:1-II:C; linker I:N-II:N via Actinocin(9to1))
formation of micronuclei / micronucleated cell frequency (result in words) ([1]; CTLL-2 cells): positive response in terms of clastogenesis
induction of apoptosis (result in words) [3, 14]: induction of apoptosis
formation of micronuclei / micronucleated cell frequency (result in words) [4]: neither apoptosis nor genotoxicity is observed
induction of apoptosis (result in words) [5]: neither apoptosis nor genotoxicity is observed

COC(=O)Nc1nc2ccc(C(=O)c3cccs3)cc2[nH]1 [Nocodazole, nocodazole]
induction of apoptosis (result in words) [3, 14]: induce apoptosis

CSCCC=O [methional]
chromosomal aberrations (result in words) ([2]; CTLL-2 cells): structural aberrations, such as breaks or gaps
lowest concentration with aberrations / positive response in terms of clastogenesis ([2]; CTLL-2 cells): 18.75 µM
cells bearing chromosomal aberrations ([2]; nontransfected CTLL-2, methional 18.75 μM, control 3%): 13%
level of apoptotic cells ([3]; CTLL-2, methional at the highest dose (150 μM), control 6.5%): 24%
lowest concentration with statistically significant (p=0.01) induction of apoptosis ([3]; CTLL-2 cells, first dose): 60.8 µM
lowest concentration with statistically significant (p=0.01) micronucleated cells [7]: 60.8 µM
number of micronucleated cells ([7]; 150 μM): 98 ‰
induction of apoptosis (result in words) [5]: neither apoptosis nor micronuclei appeared

CN(N=O)C(N)=O [MNU, N-methyl-N-nitrosourea]
formation of micronuclei / micronucleated cell frequency (result in words) ([1]; CTLL-2 cells): positive response
induction of apoptosis (result in words) [3, 14]: without inducing apoptosis
formation of micronuclei / micronucleated cell frequency (result in words) [4]: positive response
induction of apoptosis (result in words) [5]: without inducing apoptosis

mitomycin C
formation of micronuclei / micronucleated cell frequency (result in words) ([1]; CTLL-2 cells): micronucleated cell frequencies increase significantly with the dose
formation of micronuclei / micronucleated cell frequency (result in words) [4]: micronucleated cell frequencies increase significantly with the dose

COS(C)(=O)=O [MMS, Methyl methanesulfonate]
induction of apoptosis (result in words) [3, 14]: apoptotic phenomenon is not triggered
induction of apoptosis (result in words) [5]: apoptotic phenomenon is not triggered

CN[C@@H]1C[C@H]2O[C@@](C)([C@@H]1OC)n1c3ccccc3c3c4c(c5c6ccccc6n2c5c31)C(=O)NC4 [staurosporine]
formation of micronuclei / micronucleated cell frequency (result in words) ([1]; CTLL-2 cells): positive response in terms of clastogenesis
induction of apoptosis (result in words) [3, 14]: induction of apoptosis
formation of micronuclei / micronucleated cell frequency (result in words) [4]: neither apoptosis nor genotoxicity is observed
induction of apoptosis (result in words) [5]: neither apoptosis nor genotoxicity is observed

C[C@H]1CCC/C=C/[C@@H]2C[C@H](O)C[C@H]2[C@H](O)/C=C/C(=O)O1 [brefeldin A]
induction of apoptosis (result in words) [3, 14]: induce apoptosis

CN1C(=O)CN=C(c2ccccc2)c2cc(Cl)ccc21 [diazepam]
formation of micronuclei / micronucleated cell frequency (result in words) ([1]; CTLL-2 cells): positive response
induction of apoptosis (result in words) [3]: without inducing apoptosis
formation of micronuclei / micronucleated cell frequency (result in words) [4]: positive response
induction of apoptosis (result in words) [5]: without inducing apoptosis
